Data from a compilation of properties of binary mixtures (doi:10.1007/s10953-016-0518-2).

Experiment: xn = mol fraction of the nth substance listed
Conditions: 101 kPa

OCCO + CC[n+]1ccn(C)c1.F[B-](F)(F)F
x2 = 0
Conditions | viscosity [mPa·s]
303.15 K | 13.8
313.15 K | 9.62
323.15 K | 6.92

CC[n+]1ccn(C)c1.F[B-](F)(F)F + OCCO
viscosity [mPa·s]
Conditions | x1 = 0.0993 | x1 = 0.2001 | x1 = 0.3023 | x1 = 0.4011 | x1 = 0.5003 | x1 = 0.598 | x1 = 0.7003 | x1 = 0.7997 | x1 = 0.8997 | x1 = 1
303.15 K | 10.5 | 9.63 | 9.5 | – | 10.6 | 11.9 | 14 | 16.9 | 21.4 | 28
313.15 K | 7.54 | 6.96 | 6.97 | – | 7.91 | 8.98 | 10.5 | 12.7 | 15.9 | 20.4
323.15 K | 5.57 | 5.22 | 5.3 | 5.63 | 6.21 | 7.05 | 8.29 | 9.9 | 12.3 | 15.3
333.15 K | – | – | 4.2 | 4.51 | 5.02 | 5.7 | 6.7 | 8.07 | 9.7 | 12.1
